The text below walks through data of PubChem BioAssay (NCI).

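Cultured in 96-well plates, cells were exposed to test compound for 48 hours across five concentrations. The concentration for 50% growth inhibition is given as GI50. The concentration for full growth arrest is given as TGI.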 Bounds are passed on as bounds.

Some test systems named below: NCI-H23 lung; UACC-62 melanoma; K-562 leukemia; SW-620 colon; UO-31 renal; SF-539 CNS; NCI-H226 lung; SK-OV-3 ovarian; EKVX NSCLC; A549 NSCLC.
What all share (experiment): NCI tumour cell line growth inhibition, 48 h

Consider `N/C(=N\N=C\c1ccc(O)c(O)c1)NO`, for which the TGI with NCI-H23 lung, with UACC-62 melanoma, in the assay on K-562 leukemia, in the assay on SW-620 colon, with UO-31 renal and with SF-539 CNS was more than 100 µM each time. Also, the TGI in the assay on NCI-H226 lung, in the assay with SK-OV-3 ovarian, in the assay on EKVX NSCLC and with A549 NSCLC was more than 100 µM in each case.

Turning to `CC(C)Cc1ccc(C(C)/C=C2\CCC(CN3CCCCC3)C2=O)cc1` (stereo not drawn), the TGI in the assay with NCI-H23 lung was determined as 20.8 µM; in the assay on UACC-62 melanoma, 24.2 µM; in the assay on K-562 leukemia, 9.19 µM; in the assay with SW-620 colon it was 13.4 µM; in the assay with UO-31 renal, 23.7 µM; in the assay on SF-539 CNS it was 11.4 µM. Also, the TGI with NCI-H226 lung stood at 32.2 µM; in the assay with SK-OV-3 ovarian, 34.9 µM; in the assay with EKVX NSCLC it was 21.1 µM; in the assay on A549 NSCLC, 39.9 µM.

As to `N#CC(C(=O)O)C(c1c(Cl)cccc1Cl)C(C#N)C(=O)O` (stereo not drawn), the TGI in the assay with NCI-H23 lung, in the assay with UACC-62 melanoma, in the assay with K-562 leukemia, with SW-620 colon, with UO-31 renal and in the assay on SF-539 CNS was more than 100 µM each time. In addition, the TGI in the assay on NCI-H226 lung, in the assay on SK-OV-3 ovarian, with EKVX NSCLC and with A549 NSCLC was more than 100 µM each time.

`CCN(CC)CCC(=O)N1C/C(=C/c2ccccc2)C(=O)/C(=C\c2ccccc2)C1`: the TGI stood at 3.91 µM in the assay on NCI-H23 lung; 4.92 µM in the assay on UACC-62 melanoma; 2.62 µM in the assay on K-562 leukemia; 0.629 µM in the assay with SW-620 colon; 3.78 µM in the assay on UO-31 renal; 10.8 µM in the assay on SF-539 CNS. Also, the TGI in the assay on NCI-H226 lung is 13.7 µM; in the assay with SK-OV-3 ovarian it was 20.9 µM; in the assay with EKVX NSCLC, 13.6 µM; with A549 NSCLC, 17.1 µM.

As for `CC1(C)OC2COC(c3[nH]nc4c(=O)[nH]c(=O)[nH]c34)C2O1` (stereo not drawn), the TGI in the assay with NCI-H23 lung, in the assay on UACC-62 melanoma, in the assay on K-562 leukemia, with SW-620 colon, in the assay with UO-31 renal and in the assay with SF-539 CNS was more than 100 µM each time. Moreover, the TGI with NCI-H226 lung, in the assay with SK-OV-3 ovarian, with EKVX NSCLC and in the assay with A549 NSCLC was more than 100 µM throughout.

As to `COc1cccc(NC(=O)c2ccc(NC3=C(Cl)C(=O)N(Cc4ccccc4)C3=O)cc2)c1`, the GI50 is 15.3 µM with NCI-H23 lung; 15.4 µM with UACC-62 melanoma; 18.9 µM with K-562 leukemia; 10.3 µM in the assay on SW-620 colon; 18.2 µM in the assay on UO-31 renal; 17.3 µM with SF-539 CNS. In addition, the GI50 in the assay with NCI-H226 lung is 14.8 µM; with SK-OV-3 ovarian, 30.5 µM; in the assay with EKVX NSCLC, 24.4 µM; in the assay with A549 NSCLC, 13.6 µM. In addition, the TGI with NCI-H23 lung turned out to be 28.6 µM; in the assay on UACC-62 melanoma, 28.8 µM; in the assay with K-562 leukemia, 47.2 µM; in the assay on SW-620 colon, 25.7 µM; in the assay on UO-31 renal, 62.6 µM; in the assay on SF-539 CNS, 31 µM. For the same compound, the TGI in the assay with NCI-H226 lung was found to be 28.8 µM; in the assay on SK-OV-3 ovarian, 85.4 µM; in the assay on EKVX NSCLC, 49.4 µM; with A549 NSCLC it was 38 µM.

With `NC(Cc1c[nH]c2cc(F)ccc12)C(=O)O` (stereo not drawn), the GI50 was 1010 µM in the assay with NCI-H23 lung; 1700 µM in the assay on UACC-62 melanoma; 912 µM in the assay with K-562 leukemia; 1480 µM with SW-620 colon; 890 µM with SF-539 CNS; 2480 µM in the assay with NCI-H226 lung. Further, the values for the GI50 with SK-OV-3 ovarian, in the assay with EKVX NSCLC and in the assay with A549 NSCLC were 877 µM, more than 2500 µM and 1150 µM, respectively. In addition, the TGI in the assay on NCI-H23 lung, with UACC-62 melanoma, in the assay on K-562 leukemia, in the assay with SW-620 colon, in the assay with UO-31 renal and in the assay with SF-539 CNS was more than 2500 µM in each case. For the same compound, the TGI in the assay on NCI-H226 lung, in the assay with SK-OV-3 ovarian, with EKVX NSCLC and in the assay with A549 NSCLC was more than 2500 µM in each case.

Consider `S=C1SCN(C2CCCCCCCCCCC2)CN1C1CCCCCCCCCCC1`, for which the TGI in the assay with NCI-H23 lung, with UACC-62 melanoma, with K-562 leukemia, in the assay with SW-620 colon, in the assay on UO-31 renal and in the assay with SF-539 CNS was more than 100 µM in each case. Also, the TGI with NCI-H226 lung, in the assay on SK-OV-3 ovarian, in the assay on EKVX NSCLC and in the assay with A549 NSCLC was more than 100 µM each time.

On to `COc1ccc2c(c1)c(-c1ccc(-c3cn(C)c4ccc(OC)cc34)o1)cn2C`, for which the GI50 in the assay on NCI-H23 lung was 17.3 µM; with UACC-62 melanoma it was 3.81 µM; in the assay on K-562 leukemia, 2.86 µM; in the assay on SW-620 colon, 4.55 µM; in the assay on UO-31 renal it was 3.6 µM; with SF-539 CNS, 2.47 µM. For the same compound, the GI50 in the assay on NCI-H226 lung is 23.6 µM; with SK-OV-3 ovarian, more than 100 µM; in the assay on EKVX NSCLC, 5.48 µM; with A549 NSCLC, 18.4 µM. For the same compound, the TGI in the assay with NCI-H23 lung was more than 100 µM; in the assay on UACC-62 melanoma, 15.9 µM; in the assay on K-562 leukemia, more than 100 µM; in the assay with SW-620 colon, 16.7 µM; in the assay on UO-31 renal, 15 µM; in the assay with SF-539 CNS, 9.27 µM. In addition, the TGI is more than 100 µM in the assay with NCI-H226 lung, more than 100 µM in the assay on SK-OV-3 ovarian, 23.4 µM in the assay with EKVX NSCLC and more than 100 µM with A549 NSCLC.

For the compound `O=C1c2ccccc2-c2c1c1ccc([N+](=O)[O-])cc1c(=O)n2CCCn1ccnc1`, the GI50 with NCI-H23 lung is 0.119 µM; in the assay with UACC-62 melanoma it was 0.0116 µM; in the assay on K-562 leukemia, 0.886 µM; with UO-31 renal, 0.724 µM; with SF-539 CNS, 0.0149 µM; in the assay with NCI-H226 lung, 0.0183 µM. Further, the GI50 with SK-OV-3 ovarian was 9.63 µM; in the assay on EKVX NSCLC, 6.16 µM; with A549 NSCLC it was 3.17 µM. Further, the TGI with NCI-H23 lung was found to be 0.292 µM; with UACC-62 melanoma it was 0.0348 µM; in the assay with K-562 leukemia, 5.16 µM; with SW-620 colon, 0.529 µM; in the assay with UO-31 renal it was 2.62 µM; in the assay with SF-539 CNS, 0.0838 µM. Besides, the TGI in the assay on NCI-H226 lung is 0.0637 µM; in the assay on SK-OV-3 ovarian it was more than 39.5 µM; in the assay with EKVX NSCLC it was more than 21.8 µM; in the assay on A549 NSCLC, 21.9 µM.
